{"source": "patent US9802941B2", "about": "“Compounds and methods for inhibiting histone demethylases” (Gilead Sciences, Inc., priority 2014, dated 2017)", "assay_type_in_all_cases": "biochemical", "key": {"KDM5B (PLU-1)": {"target": "T1, KDM5B (PLU-1) (Homo sapiens, UniProt Q9UGL1)", "T1 construct": "BRIC; 1-809; E. coli; host or cells: E. coli", "T1 sequence (Q9UGL1 1-809)": "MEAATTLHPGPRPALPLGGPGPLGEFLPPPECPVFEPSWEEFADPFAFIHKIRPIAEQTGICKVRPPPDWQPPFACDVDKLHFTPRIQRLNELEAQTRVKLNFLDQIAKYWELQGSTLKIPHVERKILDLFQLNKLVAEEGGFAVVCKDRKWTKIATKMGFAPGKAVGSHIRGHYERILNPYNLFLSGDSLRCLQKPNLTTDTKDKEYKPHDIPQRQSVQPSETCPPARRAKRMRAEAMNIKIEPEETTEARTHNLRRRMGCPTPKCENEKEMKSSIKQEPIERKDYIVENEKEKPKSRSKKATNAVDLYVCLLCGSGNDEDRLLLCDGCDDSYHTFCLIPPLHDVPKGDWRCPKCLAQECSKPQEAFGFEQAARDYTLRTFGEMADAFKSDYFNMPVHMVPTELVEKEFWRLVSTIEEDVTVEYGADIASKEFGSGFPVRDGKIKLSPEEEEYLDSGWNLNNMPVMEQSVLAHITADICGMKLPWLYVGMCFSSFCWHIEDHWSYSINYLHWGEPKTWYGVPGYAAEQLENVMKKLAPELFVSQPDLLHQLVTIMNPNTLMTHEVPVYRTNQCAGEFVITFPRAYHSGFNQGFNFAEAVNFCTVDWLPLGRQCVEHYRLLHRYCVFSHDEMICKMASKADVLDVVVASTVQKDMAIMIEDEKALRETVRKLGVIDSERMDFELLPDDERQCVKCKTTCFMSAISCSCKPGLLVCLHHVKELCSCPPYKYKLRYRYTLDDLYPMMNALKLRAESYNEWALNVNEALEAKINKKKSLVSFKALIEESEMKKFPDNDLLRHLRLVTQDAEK", "assay": "Histone lysine demethylase AlphaLISA assay, KDM5B", "procedure,_shortened": "(§1)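 AlphaLISA demethylase assay: enzyme in buffer of 50 mM Hepes (pH 7.4-8.0), 0.003-0.01% Tween-20, 0.1% BSA, 5 μM (NH4)2Fe(SO4)2 preincubated 10 min with compound before substrate addition at room temperature. Product detected with acceptor beads then streptavidin donor beads, read after dark incubation.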"}, "KDM2B (FBXL10)": {"target": "T2, KDM2B (FBXL10) (Homo sapiens, UniProt Q8NHM5)", "T2 construct": "KDM2B; BPS,; 1-650; Bac; purchased BPS Bioscience, US; host or cells: baculovirus system", "T2 sequence (Q8NHM5 1-650)": "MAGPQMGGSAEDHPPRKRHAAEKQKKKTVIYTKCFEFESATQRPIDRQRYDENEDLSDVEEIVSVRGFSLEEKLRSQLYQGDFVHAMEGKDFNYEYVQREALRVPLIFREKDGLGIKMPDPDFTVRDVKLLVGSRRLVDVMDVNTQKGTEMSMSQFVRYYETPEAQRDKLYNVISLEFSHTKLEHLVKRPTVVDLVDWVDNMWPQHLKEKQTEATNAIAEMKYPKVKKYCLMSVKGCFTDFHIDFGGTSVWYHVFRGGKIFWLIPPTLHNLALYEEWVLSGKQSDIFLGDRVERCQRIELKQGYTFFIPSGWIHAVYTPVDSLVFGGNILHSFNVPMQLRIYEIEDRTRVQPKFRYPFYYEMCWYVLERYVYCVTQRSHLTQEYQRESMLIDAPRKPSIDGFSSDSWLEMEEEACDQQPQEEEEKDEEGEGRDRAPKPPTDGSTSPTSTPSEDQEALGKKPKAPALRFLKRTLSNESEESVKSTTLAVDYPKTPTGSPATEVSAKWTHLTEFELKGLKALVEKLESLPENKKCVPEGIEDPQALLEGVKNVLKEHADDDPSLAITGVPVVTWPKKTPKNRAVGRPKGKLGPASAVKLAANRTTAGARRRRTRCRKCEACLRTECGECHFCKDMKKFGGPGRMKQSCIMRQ", "assay": "Histone lysine demethylase AlphaLISA assay, KDM2B", "conditions": "AlphaLISA, in vitro; read-out: HDME Inhibition KDM2B", "procedure,_shortened": "as §1"}, "KDM4C (JMJD2C)": {"target": "T3, KDM4C (JMJD2C) (Homo sapiens, UniProt Q9H3R0)", "T3 construct": "KDM4C; BRIC, Denmark; 1-349; E. coli; host or cells: E. coli", "T3 sequence (Q9H3R0 1-349)": "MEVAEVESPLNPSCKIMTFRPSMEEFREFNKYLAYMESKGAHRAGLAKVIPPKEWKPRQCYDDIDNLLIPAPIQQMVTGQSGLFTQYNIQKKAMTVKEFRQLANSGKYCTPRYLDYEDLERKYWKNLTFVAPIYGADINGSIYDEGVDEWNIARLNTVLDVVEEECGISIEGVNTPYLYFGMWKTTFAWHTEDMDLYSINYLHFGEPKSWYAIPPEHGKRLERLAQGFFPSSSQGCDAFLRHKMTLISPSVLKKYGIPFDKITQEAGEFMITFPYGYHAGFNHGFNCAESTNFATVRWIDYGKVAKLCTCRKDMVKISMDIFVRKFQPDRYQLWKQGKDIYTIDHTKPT", "assay": "Histone lysine demethylase AlphaLISA assay, KDM4C", "procedure,_shortened": "as §1"}, "KDM6A (UTX)": {"target": "T4, KDM6A (UTX) (Homo sapiens, UniProt O15550)", "T4 construct": "KDM6A (UTX); BRIC; 919-1401; E. coli; host or cells: E. coli", "T4 sequence (O15550 919-1401)": "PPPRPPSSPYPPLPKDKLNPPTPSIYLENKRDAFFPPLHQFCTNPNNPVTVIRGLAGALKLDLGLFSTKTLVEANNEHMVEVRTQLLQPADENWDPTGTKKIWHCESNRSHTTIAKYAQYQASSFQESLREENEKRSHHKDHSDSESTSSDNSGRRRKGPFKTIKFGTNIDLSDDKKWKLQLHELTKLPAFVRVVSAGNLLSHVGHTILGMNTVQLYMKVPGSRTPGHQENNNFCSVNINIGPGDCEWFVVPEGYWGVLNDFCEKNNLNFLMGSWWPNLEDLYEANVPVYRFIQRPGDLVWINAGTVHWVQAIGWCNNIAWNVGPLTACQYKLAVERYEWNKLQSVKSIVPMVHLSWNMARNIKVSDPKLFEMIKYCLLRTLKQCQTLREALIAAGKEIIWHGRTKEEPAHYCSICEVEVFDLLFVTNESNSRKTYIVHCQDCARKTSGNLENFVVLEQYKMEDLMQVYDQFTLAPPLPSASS", "assay": "Histone lysine demethylase AlphaLISA assay, KDM6A", "procedure,_shortened": "as §1"}, "PHF8 (KDM7)": {"target": "T5, PHF8 (KDM7) (Homo sapiens, UniProt Q9UPP1)", "T5 construct": "KDM7 (PHF8); BRIC; 1-1322; Bac", "T5 sequence (Q9UPP1 37-440 limits assumed)": "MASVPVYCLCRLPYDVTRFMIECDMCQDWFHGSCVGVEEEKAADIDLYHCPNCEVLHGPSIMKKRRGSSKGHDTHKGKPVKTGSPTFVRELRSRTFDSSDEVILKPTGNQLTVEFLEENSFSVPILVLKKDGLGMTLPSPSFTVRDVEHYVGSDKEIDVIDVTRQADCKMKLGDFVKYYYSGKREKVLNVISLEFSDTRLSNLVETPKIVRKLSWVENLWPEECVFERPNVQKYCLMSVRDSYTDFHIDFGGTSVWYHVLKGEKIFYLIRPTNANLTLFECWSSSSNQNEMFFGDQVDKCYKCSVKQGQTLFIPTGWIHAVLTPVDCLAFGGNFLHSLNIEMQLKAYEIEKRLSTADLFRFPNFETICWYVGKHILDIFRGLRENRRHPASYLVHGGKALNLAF", "assay": "Histone lysine demethylase AlphaLISA assay, PHF8", "procedure,_shortened": "as §1"}, "[1]": {"conditions": "AlphaLISA assay, read-out: HDME Inhibition KDM4C (IC50)"}, "[2]": {"conditions": "AlphaLISA, in vitro, read-out: HDME Inhibition KDM4C"}, "[3]": {"conditions": "AlphaLISA assay, read-out: HDME Inhibition KDM6A (IC50)"}, "[4]": {"conditions": "AlphaLISA, in vitro, read-out: HDME Inhibition KDM6A"}, "[5]": {"conditions": "AlphaLISA, in vitro, read-out: HDME Inhibition PHF8"}, "[6]": {"conditions": "AlphaLISA assay, read-out: HDME Inhibition KDM5B (IC50)"}, "[7]": {"conditions": "AlphaLISA, in vitro, read-out: HDME Inhibition KDM5B"}}, "note": "Like-named read-outs stand apart in the source and are kept apart here."}
{"smiles": "Cc1cc(C(=O)O)cc(CNCc2nnc(C3CC3)n2Cc2ccc(F)cc2)n1", "note": "[Compound 38, 2-{[({5-cyclopropyl-4-[(4-fluorophenyl)methyl]-4H-1,2,4-triazol-3-yl}methyl)amino]methyl}-6-methylpyridine-4-carboxylic acid]", "values": [{"measurement": "IC50", "setting": "KDM5B (PLU-1)", "result": 4.62, "unit": "µM"}, {"measurement": "IC50", "setting": "KDM2B (FBXL10)", "result": 2.29, "unit": "µM"}, {"measurement": "IC50", "setting": "KDM4C (JMJD2C); [1]", "result": "> 10", "unit": "µM"}, {"measurement": "IC50", "setting": "KDM4C (JMJD2C); [2]", "result": "> 10", "unit": "µM"}, {"measurement": "IC50", "setting": "KDM6A (UTX); [3]", "result": "> 10", "unit": "µM"}, {"measurement": "IC50", "setting": "KDM6A (UTX); [4]", "result": "> 10", "unit": "µM"}, {"measurement": "IC50", "setting": "PHF8 (KDM7); AlphaLISA assay, read-out: HDME Inhibition PHF8 (IC50)", "result": "> 10", "unit": "µM"}, {"measurement": "IC50", "setting": "PHF8 (KDM7); [5]", "result": "> 10", "unit": "µM"}]}
{"smiles": "Cc1cc(C(=O)O)cc(CNCc2ncc(C3CCC3)n2Cc2ccc(F)cc2)n1", "note": "[Compound 39, 2-{[({5-cyclobutyl-1-[(4-fluorophenyl)methyl]-1H-imidazol-2-yl}methyl)amino]methyl}-6-methyl pyridine-4-carboxylic acid]", "values": [{"measurement": "IC50", "setting": "KDM5B (PLU-1); [6]", "result": "> 10", "unit": "µM"}, {"measurement": "IC50", "setting": "KDM5B (PLU-1); [7]", "result": "> 10", "unit": "µM"}, {"measurement": "IC50", "setting": "KDM2B (FBXL10)", "result": 0.155, "unit": "µM"}, {"measurement": "IC50", "setting": "KDM4C (JMJD2C); [1]", "result": "> 10", "unit": "µM"}, {"measurement": "IC50", "setting": "KDM4C (JMJD2C); [2]", "result": "> 10", "unit": "µM"}, {"measurement": "IC50", "setting": "KDM6A (UTX); [3]", "result": "> 10", "unit": "µM"}, {"measurement": "IC50", "setting": "KDM6A (UTX); [4]", "result": "> 10", "unit": "µM"}, {"measurement": "IC50", "setting": "PHF8 (KDM7); [5]", "result": 0.472, "unit": "µM"}]}
{"smiles": "Cc1cc(C(=O)O)cc(CNCc2nnc(Cc3cccs3)n2Cc2ccc(F)cc2)n1", "note": "[Compound 40, 2-{[({4-[(4-fluorophenyl)methyl]-5-(thiophen-2-ylmethyl)-4H-1,2,4-triazol-3-yl}methyl)amino]methyl}-6-methylpyridine-4-carboxylic acid]", "values": [{"measurement": "IC50", "setting": "KDM5B (PLU-1); [6]", "result": "> 10", "unit": "µM"}, {"measurement": "IC50", "setting": "KDM5B (PLU-1); [7]", "result": "> 10", "unit": "µM"}, {"measurement": "IC50", "setting": "KDM2B (FBXL10)", "result": 0.599, "unit": "µM"}, {"measurement": "IC50", "setting": "KDM4C (JMJD2C); [1]", "result": "> 10", "unit": "µM"}, {"measurement": "IC50", "setting": "KDM4C (JMJD2C); [2]", "result": "> 10", "unit": "µM"}, {"measurement": "IC50", "setting": "KDM6A (UTX); [3]", "result": "> 10", "unit": "µM"}, {"measurement": "IC50", "setting": "KDM6A (UTX); [4]", "result": "> 10", "unit": "µM"}, {"measurement": "IC50", "setting": "PHF8 (KDM7); [5]", "result": 1.53, "unit": "µM"}]}
